The subject of data set [1] is SARS-CoV-2. The data set is classed as cell-based. The following applies: read-out: IC50 (avg).
Data set [2] concerns Vero E6 cells. As to conditions: read-out: CC50 (avg); 3 days.
The subject of data set [3] is SARS-CoV-2. The data set is classed as cell-based.
Data set [4] deals with SARS-CoV-2. It counts as cell-based. The source holds these as a separate data set.
Data set [5] concerns clathrin-mediated endocytosis. The following applies: cited from earlier work.
Data set [6] has as its system SARS-CoV spike. The following applies: cited from earlier work.
The subject of data set [7] is MERS-CoV spike. The following applies: cited from earlier work.

SMILES strings stand for the structures. Several values for one entry are separate records, joined by “and”; a condition that tells them apart may be missing. Identical values can stand only once. Counter-ions that a name gives are not always drawn.

In the case of `CCN(CC)Cc1cc(Nc2ccnc3cc(Cl)ccc23)ccc1O` [Amodiaquine dihydrochloride dihydrate], the concentration for half-maximal inhibition (IC50) in data set [1] is 2.59 µM and 4.94 µM. On to `CCN(CC)Cc1cc(Nc2ccnc3cc(Cl)ccc23)ccc1O` [Amodiaquine hydrochloride], for which the CC50 in data set [2] was above 38.6 µM. As for `CC(CN1c2ccccc2Sc2ccccc21)N(C)C` (centres unmarked) [Promethazine hydrochloride], in data set [1], the concentration for half-maximal inhibition (IC50) was 10.4 µM. The same measure, in the same setting: the value for `CCN(CC)CCOc1ccc(C(O)(Cc2ccc(Cl)cc2)c2ccc(C)cc2)cc1` (centres unmarked) [Triparanol] was 6.41 µM; that for `CCSc1ccc2c(c1)N(CCCN1CCN(C)CC1)c1ccccc1S2` [Thiethylperazine maleate] was 8.02 µM. The same measure, in the same setting: with `OC(c1cc(C(F)(F)F)nc2c(C(F)(F)F)cccc12)C1CCCCN1` (centres unmarked) [Mefloquine hydrochloride] the figure was 8.06 µM. Still for that read-out and setting: the value for `O=C1NCN(c2ccccc2)C12CCN(CCCC(c1ccc(F)cc1)c1ccc(F)cc1)CC2` [Fluspirilene] was 5.32 µM; that for `CC(C)N1CCN(c2ccc(OCC3COC(Cn4cncn4)(c4ccc(Cl)cc4Cl)O3)cc2)CC1` (centres unmarked) [Terconazole] was 16.1 µM. For the compound `CCN(CC)CCCC(C)Nc1ccnc2cc(Cl)ccc12` (centres unmarked) [Chloroquine phosphate], in data set [1], the IC50 amounted to 46.8 µM. For the same compound, the “infectious viral particle production of SARS-CoV-2 (TCID50)” value (from here on “infectious viral particle production”) in data set [3] is “can inhibit”. Besides, the “production of SARS-CoV-2 N and RdRp mRNA” value in data set [4] is reported as “inhibit production”. For `CN(C)CCCN1c2ccccc2Sc2ccc(Cl)cc21` [Chlorpromazine hydrochloride], the 50% inhibitory concentration (IC50) in data set [1] was determined as 4.03 µM. Besides, the “infectious viral particle production” value in data set [3] was “can inhibit”. Further, the clathrin-mediated endocytosis entry in data set [5] is recorded as “inhibit”. Take `Cc1ccc(NC(=O)c2ccc(CN3CCN(C)CC3)cc2)cc1Nc1nccc(-c2cccnc2)n1` [Imatinib mesylate]: in data set [6], the SARS-CoV spike-mediated entry entry is given as “inhibits”. Also, in data set [7], the MERS-CoV spike-mediated entry result is listed as “inhibits”. On to `CCN(CCO)CCCC(C)Nc1ccnc2cc(Cl)ccc12` (centres unmarked) [Hydroxychloroquine sulfate], for which the IC50 in data set [1] was 11.2 µM. Also, the “infectious viral particle production” value in data set [3] is on record as “can inhibit”. The “time-of-addition: inhibitory activity on infectious-virus production” value in data set [3] (24 h) is “some reduction in inhibitory activity”. In addition, the “production of SARS-CoV-2 N and RdRp mRNA” value in data set [4] was “inhibit production”.

By IC50 is commonly meant the midpoint of a concentration-inhibition curve. As a reminder, the CC50 is the concentration that lowers cell viability or growth by half.

These data come from publication PMC7565640 (Journal of Virology, 2020).
